Source: patent US20030176499A1, “Use of fibrates for the preparation of a medicament useful in the treatment of congestive heart failure” (priority 2003, published 2003)

Tests used:
[1] = tested on: male Wistar rats with left ventricular hypertrophy induced by constriction of the abdominal aorta; conditions: rats with aortic constriction, clofibrate 0.2% in the feed for 12 weeks, mean ± standard deviation
Description: (§1) Animal-housed male Wistar rats weighing 100-120 g were used: 5 per cage (cage size: 425 mm×266 mm×180 mm with a sawdust litter) at a temperature of […] and 50±15% humidity with a 12/12 h light/darkness cycle and with 15-20 air changes/hour. The animals were fed with LP ALTROMIN (REIPER) feed and spring water ad libitum
(§2) Left ventricular hypertrophy was induced in rats anaesthetised with Nembutal sodium, by means of constriction of the abdominal aorta with a clip (Ø0.8 mm) placed in the abdominal aorta between the diaphragm and the renal branches; one group of animals, which was then used as a control group, underwent the same operation but was not submitted to constriction of the aorta (shams).
(§3) The animals were thus randomly assigned to the following groups:
(§4) CLO: operated on with aortic constriction and treated for 12 weeks, from the day after the operation with clofibrate 0.2% in the feed (60-100 mg/kg/day (n=11).
At the end of the experiments the animals were sacrificed by means of a lethal dose of Nembutal, the abdominal cavity was opened, the organs were exteriorised in order to verify correct positioning of the aortic clip, and the heart, lungs and liver were then removed and carefully dried and weighed after macroscopic observation of any abnormalities.
The data were expressed as mean ± standard deviation and were compared using Student's t-test for independent data. […]

[2] = tested on: male Wistar rats with left ventricular hypertrophy induced by constriction of the abdominal aorta; test: Evaluation of cardiac function in rats with aortic constriction (left ventricular catheter); format: in vivo, rat; conditions: anaesthetised rats with aortic constriction, clofibrate 0.2% in the feed for 12 weeks, mean ± standard deviation
Description: as §1, §2, §3, §4
At the end of treatment, cardiac function was evaluated, in the animals anaesthetised with Nembutal sodium, by means of a polyethylene catheter inserted in the left ventricle via the carotid and connected up to a pressure transducer (Statham p23 XL) and to an amplifier (Biomedica Mangoni bm 61).
The parameters recorded were: heart rate, ventricular systolic and end-diastolic pressure, and the positive and negative derivatives of ventricular pressure, which were recorded on a personal computer by means of a special data acquisition system (IDAS). The measurements were taken for a period of 30 minutes.
The data were expressed as mean ± standard deviation and were compared using Student's t-test for independent data. Differences with P<0.05 were regarded as statistically significant.

With `CCOC(=O)C(C)(C)Oc1ccc(Cl)cc1` [CLO, clofibrate] the “VW/BW (ventricular weight (mg) / body weight (g))” value [1] was 3.33 ± 0.20a, the “DP/dt max = positive derivative of ventricular pressure” value [2] was 16108 ± 1115eC mm Hg/sec and the “DP/dt min = negative derivative of ventricular pressure” value [2] was 9556 ± 560bA mm Hg/sec. For the same molecule, the DP/dtmax/LVSP (positive derivative normalised for ventricular systolic pressure) [2] was 77 ± 5 s⁻¹, the “HR = heart rate” value [2] was 401 ± 16 b/min and the “LDevP/HW (developed pressure normalised for ventricular weight)” value [2] was 13.3 ± 1.5aC. The LVEDP = left ventricular end-diastolic pressure [2] was 7.2 ± 1.2 mmHg, the “LVSP = left ventricular systolic pressure” value [2] was 206 ± 5aB mm Hg and the LdevP developed pressure [2] was 207 ± 7cA mm Hg.
